Data from US20030134859A1 (SANKYO COMPANY, LIMITED, priority 2000, published 2003).
Where a name gives a salt, the structure may show the parent alone.

Assays:
[1] = test system: Mouse preadipocyte strain 3T3-L1; experiment: Inhibition of differentiation as an indication of acetic acid uptake; format: cell-based; conditions: Mus musculus, 3T3-L1, 0.1 μM test substance, control (0.01% dimethylsulfoxide) = 100%, read-out: Rate of Uptake (%) of [2-14C] acetic acid
Description: As the basal medium, Dulbecco's modified Eagle's (DEM) medium (NISSUI PHARMACEUTICAL CO., LTD) was used. […] All culturing in the present Test Example was carried out in a CO2 incubator at 37° C. and 10% CO2 concentration.
The successively cultured 3T3-L1 cells were inoculated in a Biocoat Collagen I 96-well white/clear plate (Becton Dickinson and Co.) at a concentration of 4,900 cells/well, and were cultured in the basal medium containing added 10% (v/v) inactivated bovine fetal serum (FBS) for 10 days.
The medium was replaced with a differentiation-inducing medium in which inactivated FBS (final concentration: 5%), insulin (Sigma-Aldrich Japan K. K., final concentration: 10 μg/mL), isobutyl methyl xanthine (Aldrich K. K., final concentration: 0.5 mM) and dexamethazone (final concentration: 1 μM) were added so as to be at the final concentrations indicated in the parentheses. The cells were divided in the following 2 groups and were cultured for 4 days; 1) in the presence of 0.01% (v/v) dimethylsulfoxide, and 2) in the presence of 0.01% (v/v) dimethylsulfoxide in which was dissolved 1 mM of the test substance (final concentration of 0.1 μM). Then, the medium was further replaced with a maintenance medium in which inactivated […] and insulin were added to the base medium so as to be at final concentrations of 5% and 100 ng/mL, respectively, and the cells were cultured for 2 days.
The inhibitory activity of the test compound against cell differentiation was assayed by using uptake of [2-^14C] acetic acid into the cultured cells as an indicator. […] Then the cells were further incubated with the newly prepared medium for 1 hr. After washing the well with PBS (−), the cells were dried. To these wells, 100 μL/well of a scintillation cocktail (Hewlett-Packard Co., MICROSCINT-20 PACKARD) were added and their radioactivities were determined with a Packard TopCont microplate Scintillation Counter (Hewlett-Packard Co., PACKARD) and the uptake level of [2-^14C] acetic acid into the cultured cell was calculated.
On the basis of the calculated uptake level of [2-^14C] acetic acid into the cultured cells, the relative uptake level of [2-^14C] acetic acid in the group treated with the test compound was calculated against the uptake level of [2-^14C] acetic acid in the presence of 0.01% (v/v) dimethylsulfoxide solution described in 1) (100%).
Value=Uptake Level (cpm) of [2-^14C] Acetic Acid in the Presence of the Test Substance
Control=Uptake Level (cpm) of [2-^14C] Acetic Acid in the Control Group (0.01% dimethylsulfoxide)
Uptake Rate (%) of [2-^14C] Acetic Acid=100×[Value]/[Control]

leptin production = experiment: Enhancing activity for leptin production in adipocytes (ELISA); format: cell-based, rat; conditions: Rattus norvegicus, Adipocyte, 24 h, leptin concentration as % of control group, read-out: Facilitating activity to produce leptin; for activity at 0.1 µM: 100 nm
Description: Hanks solution was used for collection of adipose tissue. The Hanks solution was prepared by filtration of a mixed solution (pH: 7.5) of 120 mM NaCl, 4.8 mM KCl, 0.74 mM MgSO4, 0.30 mM Na2HPO4, 0.40 mM KH2PO4, 20 mM HEPES, 0.05% (w/v) glucose, 2% (w/v) BSA (Sigma-Aldrich Japan K. K., Cat. No. A7888), 0.95 mM CaCl2, 4.17 mM NaHCO3 and 1% (v/v) penicillin-streptomycin liquid (GIBCO BRL, Cat. No. 15140-122). The adipocytes were cultured in Dulbecco's modified Eagle's medium (GIBCO BRL, Cat. No. 11995-040) mixed with DMEM/F-12 (GIBCO BRL, Cat. No. 11320-033) at a ratio of 1:1, and added 0.2% (v/v) Hanks solution, 0.2 μg/L sodium selenite (GIBCO BRL, Cat. No. 13012-018), 0.002% (v/v) ethanolamine, 25 mM HEPES and 1% (v/v) penicillin-streptomycin liquid (GIBCO BRL, Cat. No. 15140-122). As many as possible of the other reagents used were special grade. In this experiment, the cells were cultured in a CO2 incubator (37° C., 95% humidity, 5% CO2).
Male Wistar Imamichi rats of 6 weeks old were sacrificed by bleeding following decapitation, and adipose tissue was removed from the epididymis and sectioned after the vessels were removed in warmed Hanks solution at 37° C. and were weighed. One (1) mL of Hanks solution containing 10 mg collagenase (Wako Pure Chemical Industries, Ltd., 034-10533) was added to the adipose tissue prepared. The solution was transferred into a tube having a volume of 50 mL, and the cells were evenly dispersed by incubation under gentle shaking at 37° C., 90 rpm, for 50 min. Then 20 mL of Hanks solution were added and filtrated through Nylon-mesh with a mesh diameter of 200 μm for removal of undigested tissue pieces. The floating adipocytes were separated from sediments and substances located in the lower layer by centrifugation at 1,000 rpm for 1 min at room temperature. The sediment and 22 mL of the low layer were pulled out with a probe, and the floating adipocytes were recovered. This procedure was repeated twice with Hanks solution and for 4 times with the culture medium. After these procedures the adipocytes were suspended in the culture medium at a volume of 60 mL per 1 g of the adipose tissue weighed previously. 100 μL of the suspended solution were plated in each well of a 96-well microplate (ASAHI TECHNO GLASS Corp.) In the group treated with the test compound, 1 μL/well of DMSO solution containing the dissolved the test compound at concentrations of 200 μM, 20 μM, 2 μM and 0.2 μM (final concentrations of the test compound: 1 μM, 100 nM, 10 nM and 1 nM, respectively) was plated in each of the well. In the control group, 1 μL/well of DMSO (final concentration: 0.1% (v/v)) was plated in each well. The plate was placed stationary in a CO2 incubator for 1 hr or longer, and the contents in the solution were equilibrated at 37° C. After they were equilibrated, the solution in each well was stirred with a magnetic stirrer in a water bath and the suspended solution maintained at 37° C. was plated into each well of the plate at 100 μL/well. After incubation of the cells for 24 hr, the suspended solution of cells was filtrated through a filter for the microplate, MultiScreen (MILLOPORE, MDV-N65). The concentration of leptin in the filtrated solution was determined with ELISA methods by using a Rat Leptin Determination Kit-IBL (Immuno-Biological Laboratories Co., Ltd., Cat. No. 17195). The facilitating activity of the compound to produce leptin was calculated from the following equation based on the concentration of leptin determined.
Facilitating Activity of the Compound to Produce Leptin (%)=(A/B)×100
A: Concentration of Leptin in the Treated Group with the Test Compound.
B: Concentration of Leptin in the Control Group.

Rat white adipocytes = experiment: Inhibition of the differentiation of adipocytes (Oil Red O); format: cell-based; conditions: 100 nM test compound, 5 days, Oil Red O ABS550, control = 100%, blank = 0%, Table 3; for activity at 0.1 µM: Rattus norvegicus, Adipocyte, 120 h, read-out: Rate of Differentiation (%)
Description: Rat white adipocytes contained in the white adipocyte culture kit purchased from HOKUDO were used. As the medium for proliferation and for differentiation-inducing, the medium contained in the white adipocyte culture kit purchased from HOKUDO was used. The cells in the present experiment were cultured in a CO2 incubator (37° C., 95% R.H., 5% CO2).
Immediately after arrival of the purchased cells, all medium for transportation was discarded and replaced with 5 ml of proliferation medium (/25 cm^2-flask) and the cells were cultured for one day. Then, a cell suspension was prepared with proliferation medium so as to be 83,000 cells/mL, and the cell suspension was plated into a type I 96-well collagen-coated microplate (SUMITOMO BAKELITE CO., ltd.) so as to be 5,000 cells/well (60 μL/well).
On the next day, all the proliferation medium was discarded and replaced with 147 μL/well of differentiation-inducing medium. Further, 1) in the group treated with the test compound, 3 μL/well of the solution, in which a test compound (100 μM) was dissolved in DMSO solution and diluted with differentiation-inducing medium by 20 times (final concentration of the test compound: 100 nM, final concentration of DMSO solution: 0.1% (v/v)), were added to the well where the cells were plated. 2) In the control group, 3 μL/well of DMSO solution that was diluted with differentiation-inducing medium by 20 times (final concentration of DMSO: 0.1% (v/v)) were added to the well where the cells were plated. Further, 3) in the blank group, 3 μL/well of DMSO solution that was diluted with differentiation-inducing medium by 20 times (final concentration: 0.1% (v/v)), was added to the blank well.
After culturing for 5 days, all differentiation-inducing medium was discarded and replaced with 60 μL of 10% (v/v) formaldehyde solution (for fixation) in each well and the cells were kept stationary for 20 min at room temperature. After this, the fixative solution was discarded and replaced with 60 μL of 0.2% (v/v) Triton X (Sigma-Aldrich Japan K. K.) solution in each well and kept stationary for 5 min at room temperature. Then all Triton X solution was discarded and replaced with 60 μL of 60% (v/v) isopropanol solution containing dissolved Oil Red O (Sigma-Aldrich Japan K. K.) so as to be 0.3%, which was adipose tissue staining solution, and the well was left stationary for 10 min at room temperature. After the adipose tissue staining solution was discarded, the well was washed twice with 60 JIL of 60% isopropanol solution. Then, 100 μL of the DMSO solution were added to each well and stirred for 5 min at room temperature, The absorbance was measured at 550 nm (ABS550) with a multi-plate reader (LabSystems), and the stained amount with Oil Red O was determined. The measured level at ABS550 in the control group was defined as 100%, while the level at ABS550 in the blank group was defined as 0%. The differentiation rate (%) of the adipocytes treated with the test compound was calculated.

Row | Structure (SMILES) | activity at 0.1 µM [1] | activity at 0.1 µM (Rat white adipocytes) | further results
1 | Cc1cccc(C(C)C)c1NC(=O)c1cc([N+](=O)[O-])ccc1Cl [Example 19, N-(2-Isopropyl-6-methylphenyl)-(2-chloro-5-nitrophenyl)carboxamide] | 64.8% |  | 
2 | O=C(O)c1ccc(NC(=O)c2cc([N+](=O)[O-])ccc2Cl)cc1 [Example 27, 4-[(2-Chloro-5-nitrophenyl)carbonylamino]benzoic Acid] | 66% |  | 
3 | CCOC(=O)c1c[nH]nc1NC(=O)c1cc([N+](=O)[O-])ccc1Cl [Example 71, N-(4-Ethoxycarbonylpyrazol-3-yl)-(2-chloro-5-nitrophenyl)carboxamide] | 65.8% |  | 
4 | CC(=O)Oc1c(C)c(C)c2c(c1C)C(=O)CC(C)(COc1ccc(NC(=O)c3cc([N+](=O)[O-])ccc3Cl)cc1)O2 (centres unmarked) [Example 91, N-[4-(6-Acetoxy-2,5,7,8-tetramethyl-4-oxochroman-2-ylmethoxy)phenyl]-(2-chloro-5-nitrophenyl)carboxamide] | 85.8% |  | activity at 1 µM (leptin production): 114%; activity at 0.1 µM (leptin production): 110%
5 | CCCCCCCCCCCCCCc1sc(NC(=O)c2cc([N+](=O)[O-])ccc2Cl)nc1-c1ccccc1 [Example 109, N-(4-Phenyl-5-tetradecylthiazol-2-yl)-(2-chloro-5-nitrophenyl)carboxamide] | 64.6% |  | activity at 1 µM (leptin production): 112%
6 | Cc1ccc(NS(=O)(=O)c2ccc(NC(=O)c3cc([N+](=O)[O-])ccc3Cl)cc2)cc1 [Example 144, N-[4-(4-Tolylaminosulfonyl)phenyl]-(2-chloro-5-nitrophenyl)carboxamide] | 82.2% |  | 
7 | Nc1ccc(NC(=O)c2cc([N+](=O)[O-])ccc2Cl)cc1 [Example 180, N-(4-Aminophenyl)-(2-chloro-5-nitrophenyl)carboxamide] |  |  | Rate of Differentiation (%) (Rat white adipocytes): 59.1%
8 | CCCCCCCCN(CCCCCCCC)c1ccc(-c2ccc(NC(=O)c3cc([N+](=O)[O-])ccc3Cl)cc2)cc1 [Example 185, N-[4-[4-(N,N-Dioctylamino)phenyl]phenyl]-(2-chloro-5-nitrophenyl)carboxamide Hydrochloride] |  |  | activity at 1 µM (leptin production): 123%; activity at 0.01 µM (leptin production; 10 nm): 122%; activity at 0.1 µM (leptin production): 132%
9 | CCCCN(C)c1ccc(-c2ccc(NC(=O)c3cc([N+](=O)[O-])ccc3Cl)cc2)cc1 [Example 210, N-[4-[4-(N-Butyl-N-methylamino)phenyl]phenyl]-(2-chloro-5-nitrophenyl)carboxamide] |  | 47.6% | 
10 | CCCN(C)c1ccc(-c2ccc(NC(=O)c3cc([N+](=O)[O-])ccc3Cl)cc2)cc1 [Example 213, N-[4-[4-(N-Methyl-N-propylamino)phenyl]phenyl]-(2-chloro-5-nitrophenyl)carboxamide] |  | 47.4% | 
11 | CCCCCN(C)c1ccc(-c2ccc(NC(=O)c3cc([N+](=O)[O-])ccc3Cl)cc2)cc1 [Example 215, N-[4-[4-(N-Methyl-N-pentylamino)phenyl]phenyl]-(2-chloro-5-nitrophenyl)carboxamide] |  | 45.2% | 
12 | O=C(Nc1ccc(C(O)(C(F)(F)F)C(F)(F)F)cc1)c1cc([N+](=O)[O-])ccc1Cl [Example 237, N-[4-(2,2,2-Trifluoro-1-hydroxy-1-trifluoromethylethyl)phenyl]-(2-chloro-5-nitrophenyl)carboxamide] |  | 46.9% | 
